Test results as given in patent US11919898B2, “Crystal form of azaindole derivative and use thereof” (Wuxi Life Fountain Biotech Co., Ltd, priority 2020, dated 2024).
Read-outs that look alike come from different tables or passages of the source.

Experiments:
human FGFR1 = target: T1, human FGFR1 (Homo sapiens, UniProt P11362); assay: 33P isotope-labeled kinase activity assay, FGFR1; assay type: biochemical; settings: ATP 5 μM
T1 construct: purchased Invitrogen PV3146
Description: The IC50 value was tested by ^33P isotope-labeled kinase activity assay (Reaction Biology Corp) to evaluate the inhibition of the test compounds on human FGFR1, FGFR4, and c-Met.
Buffer: 20 mM Hepes (pH 7.5), 10 mM MgCl2, 1 mM EGTA, 0.02% Brij35, 0.02 mg/ml BSA, 0.1 mMNa3VO4, 2 mM DTT, and 1% DMSO.
Test procedure: At room temperature, the test compound was dissolved in DMSO to prepare a 10 mM solution for use. The substrate was dissolved in freshly prepared buffer, and the test kinase was added and mixed well. A solution of the test compound in DMSO was added to the mixed reaction solution using an acoustic technology (Echo550). […] After 15 min of incubation, ^33P-ATP (with an activity of 0.01 μCi/nL, the corresponding concentration is listed in Table 18) was added to start the reaction. […] The kinase activity data were expressed by the comparison of the kinase activity in the presence of the test compound with the kinase activity of the blank group (containing only DMSO), and an IC50 value was obtained by curve fitting with Prism4 software (GraphPad).

[1] = Hygroscopicity test by dynamic vapor sorption (DVS); assay type: physicochemical
Description: Dynamic Vapor Sorption (DVS) of the Present Invention • Instrument model: SMS DVS Intrinsic Dynamic Vapor Sorption Analyzer • Test method: A sample (10-30 mg) is tested in a DVS sample pan. Detailed DVS Parameters: • Temperature: 25° C. • Equilibration: dm/dt=0.002%/min (Minimum: 10 min, Maximum: 180 min) • RH (%) test interval: 10 (0-90%), 5 (90-95%) • RH (%) test interval range: 0-95-0 Hygroscopicity evaluations are classified as follows: [table] Note: AW % represents the hygroscopic weight gain of the test product at 25° C./80% RH. Experimental Method: • 10-30 mg of the crystal form A of the compound of Formula (II) was placed in the DVS sample pan and tested. Experimental Method: • 10-30 mg of the crystal form G of the compound of Formula (III) was placed in the DVS sample pan and tested. Experimental Method: • 10-30 mg of the crystal form J of the compound of Formula (IV) was placed in the DVS sample pan and tested.

[2] = Pharmacokinetic evaluation in rats (intravenous and oral); assay type: in vivo, male SD rats
Description: For agents for intravenous administration, 30% (v/v) PEG400 in purified water was as a vehicle. An appropriate amount of compound was accurately weighed into a glass flask, 30 vol % of PEG400 of the container volume was slowly added to the container with stirring, and then the remaining 70 vol % of pure water was added to make up to the final volume and stirred continuously until a clear solution was obtained. The solution was filtered through a […] filter membrane, and stored at room temperature for later use. The agents for intravenous administration were formulated on the day of administration, and injected into male SD rats via tail vein (fasted overnight before administration) at a dose of 0.5 mg/kg. Approximately 0.18 mL of blood was collected from the jugular vein or tail vein at 0.0833, 0.25, 0.5, 1.0, 2.0, 4.0, 8.0 and 24 hrs after intravenous administration. The corresponding test compound in the vehicle was administered by gavage to male SD rats (fasted overnight before administration) at a dose of 5 mg/kg. The experimental conditions are detailed in Table 20. Blood was collected from the jugular or tail vein at 0.0833, 0.25, 0.5, 1.0, 2.0, 4.0, 6.0, 8.0 and 24 hrs after oral administration. The blood was fed to an anticoagulation tube supplemented with EDTA-K2, and centrifuged to separate plasma. The plasma concentrations were determined by LC-MS/MS, and the relevant pharmacokinetic parameters were calculated by the linear logarithmic trapezoid method of non-compartmental model using WinNonlm™ Version 6.3 (Pharsight, Mountain View, CA) pharmacokinetic software.

SNU-16 xenograft model = assay: In vivo pharmacodynamic evaluation, SNU-16 xenograft model; design: species or system nude mice; settings: for TGI % (the last dose is given on day 30): SNU-16 xenograft model, nude mice
Description: SNU-16 cells in logarithmic growth phase were harvested, counted and resuspended in 50% PBS (pH 7.4, 0.01 M) and 50% Matrigel. The cell concentration was adjusted to 4×10^7 cells/mL, and the cells were then placed in an ice box. The cell suspension was aspirated with a 1 mL syringe and injected subcutaneously into the anterior right axilla of nude mice, at a dose of 200 μL/animal (8×10^6 cells/animal) to establish a SNU-16 xenograft model. The animal status was observed periodically, and the tumor size was measured using an electronic vernier caliper. The data was entered into an Excel spreadsheet, and the tumor volume was calculated, to monitor the tumor growth. When the tumor volume reached 100-300 mm^3, 35 tumor-bearing mice (with a tumor volume of 112-182 mm^3) in good health status having similar tumor volume were selected and randomized into 5 groups (n=7). The average tumor volume in each group was about 150 mm^3. After the test was started, the tumor size was measured twice a week, the tumor volume was calculated, and the body weight of the animal was weighed and recorded.
Analysis of tumor growth inhibition (TGI): The evolutionary growth potential of tumors was evaluated by the relationship between the tumor volume and time. The long axis (L) and short axis (W) of subcutaneous tumor were measured twice a week by a caliper, and the tumor volume (TV) was calculated by the formula ((L×W^2)/2). TGI was calculated from the difference between the median tumor volume of the mice in the solvent group and the median tumor volume of the mice in the drug group, and expressed as a percentage relative to the median tumor volume in the solvent control group.
The test data was calculated and statistically processed by SPSS19.0. Unless otherwise specified, the data were expressed as mean±standard error (Mean±SE), and the comparison between the two groups was analyzed by T-test. […] The solvent 30% PEG400 (containing 70% deionized water, v/v) alone was used as the negative control.

[3] = Stability comparison of crystal form A and crystal form B (slurry in ethanol, XRPD); assay type: physicochemical; settings: from conversion in ethanol, 16 hrs
Description: 35 g of the crystal form B of the compound of Formula (II) was weighed, added to ethanol, and stirred for 16 hrs.

[4] = intravenous, 0.5 mg/kg, male SD rats
[5] = oral (gavage), 5 mg/kg, male SD rats
[6] = rat, plasma, PO, 5 mg/kg, male SD rats (table title says mice)

T1 sequence (P11362 22-822): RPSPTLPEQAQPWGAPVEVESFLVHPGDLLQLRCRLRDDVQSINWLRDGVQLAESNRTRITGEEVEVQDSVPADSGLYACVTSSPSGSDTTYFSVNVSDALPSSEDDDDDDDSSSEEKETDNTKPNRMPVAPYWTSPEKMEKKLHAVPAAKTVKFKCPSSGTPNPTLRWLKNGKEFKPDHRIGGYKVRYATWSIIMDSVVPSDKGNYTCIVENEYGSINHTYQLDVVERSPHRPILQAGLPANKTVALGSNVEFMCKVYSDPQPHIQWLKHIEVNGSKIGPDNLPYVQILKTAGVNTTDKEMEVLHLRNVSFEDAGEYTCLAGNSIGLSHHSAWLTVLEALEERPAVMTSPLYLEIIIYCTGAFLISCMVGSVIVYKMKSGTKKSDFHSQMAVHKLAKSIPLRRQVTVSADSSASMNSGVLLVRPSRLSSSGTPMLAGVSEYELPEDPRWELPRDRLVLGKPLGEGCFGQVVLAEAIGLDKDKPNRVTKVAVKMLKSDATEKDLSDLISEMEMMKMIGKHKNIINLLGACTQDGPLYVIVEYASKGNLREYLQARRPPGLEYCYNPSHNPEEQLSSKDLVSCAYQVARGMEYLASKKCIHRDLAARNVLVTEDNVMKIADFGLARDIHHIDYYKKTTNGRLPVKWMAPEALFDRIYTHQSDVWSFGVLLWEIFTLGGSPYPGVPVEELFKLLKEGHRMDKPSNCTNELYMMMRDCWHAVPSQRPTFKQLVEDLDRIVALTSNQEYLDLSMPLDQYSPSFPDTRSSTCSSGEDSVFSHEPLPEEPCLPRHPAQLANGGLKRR

## COc1cc(OC)c(F)c(Cc2c[nH]c3ncc(-c4cnn(CCO)c4)cc23)c1F.Cl
Human FGFR1
  IC50: 0.2 nM
[1]; 25° C. and 80% RH, DVS
  ΔW, hygroscopic weight gain: 0.3710%
[1]; 25° C./80% RH
  Classification of hygroscopicity: slightly hygroscopic
[2]; [4]
  Drug exposure: high level
  Volume of distribution: high
  clearance: moderately low
  half-life: moderate
[2]; [5]
  Oral exposure: high level
  Oral exposure level compared with other salt crystal forms: higher than that of the crystal form G of the compound of Formula (III), and the crystal form J of the compound of Formula (III)
  Peak time: rapid
[2]; rat, plasma, IV, 0.5 mg/kg, male SD rats (table title says mice)
  AUC(0-t): 1.01 µM·h
[2]; rat, plasma, IV, 0.5 mg/kg, male SD rats (table title says mice), read-out: Cl
  clearance: 18.4 mL/min/kg
[2]; rat, plasma, IV, 0.5 mg/kg, male SD rats (table title says mice), read-out: T1/2 (converted)
  half-life: 79.2 min
[2]; rat, plasma, IV, 0.5 mg/kg, male SD rats (table title says mice), read-out: Vdss
  Vd: 1.87 L/kg
[2]; [6]
  AUC(0-t): 5.18 µM·h
  Cmax: 1960 nM
  Tmax: 30 min
SNU-16 xenograft model; 2.5 mg/kg BID
  TGI % (the last dose is given on day 30): 72%
SNU-16 xenograft model; 5.0 mg/kg BID
  TGI % (the last dose is given on day 30): 86%
SNU-16 xenograft model; tumor model SNU-16, nude mice
  Tumor inhibitory effect: excellent tumor inhibitory effect
[3]
  Relative stability of crystal forms: more stable than the crystal form B of the compound of Formula (II)
